Data published in PMC5104425, “A Novel Selective Inhibitor of Delta-5 Desaturase Lowers Insulin Resistance and Reduces Body Weight in Diet-Induced Obese C57BL/6J Mice” (PLoS ONE, 2016).
pIC50: −log10 of the molar value.

Legend:
[1] = test system: DIO mice; assay: Anti-obesity effects in DIO mice, 6-week treatment (HFD D12492): BW, calorie intake, observations; format: in vivo, C57BL/6J mice
Method: In this report, we performed 3 independent studies in DIO mice to characterize anti-obesity effects of our D5D specific inhibitor. Male C57BL/6J mice were obtained from Charles River Laboratories (Yokohama, Japan) or CLEA Japan (Osaka, Japan). The mice were fed a laboratory chow and water ad libitum and housed in a 12-h light/dark cycle. Compound or vehicle was administered once daily between 15: 00–19:00 by oral gavage. Body weight (BW) and food intake were monitored throughout the experiment.
Mice were fed a high-fat diet (HFD) that has 60% kcal from fat and contains 0.09% (w/w) AA (D12492; Research diets, Inc., see S1 Table for fatty acid profile) from 5 weeks of age, and they were divided into 5 groups (7 animals per group) at 11 weeks of age based on BW and daily food intake. In this experiment, 30 mg/kg sibutramine, a […], was used as a positive control for anti-obesity effects. Mice were orally administered compound-326 at doses of 0.1, 1, and 10 mg/kg, sibutramine at a dose of 30 mg/kg, or vehicle for 6 weeks. After 6 weeks, blood concentrations of DGLA and AA under non-fasting condition were evaluated as pharmacodynamics (PD) markers, and oral glucose tolerance test (OGTT) was performed.

[2] = test system: fat tissues of DIO mice; assay: RT-qPCR gene expression in epididymal and subcutaneous fat of DIO mice after 6-week treatment; format: in vivo, C57BL/6J mice; conditions: 10 mg/kg, 6 weeks
Method: Mice fed a HFD that has 41% kcal from fat and contains no AA (D12079B; Research diets, Inc.) from 5 weeks of age were divided into 2 groups at the age of 8 weeks (8 animals per group), and were administered 10 mg/kg compound-326 or vehicle for 6 weeks. After the treatment period, mice were sacrificed and epididymal and subcutaneous fats were harvested for mRNA analysis. Nine animals maintained on a standard chow (CE2, CLEA Japan, Osaka) were used as control.
Total RNA was extracted and purified using RNeasy Mini Kit (QIAGEN, USA). First-strand cDNA was synthesized using High Capacity cDNA Reverse Transcription Kits (Thermo Fisher, USA). The mRNA levels were quantified by an ABI Prism 7900 TaqMan PCR system (Thermo Fisher, USA) according to the manufacturer’s instruction using TaqMan® Universal PCR Mastermix with the primer-probe sets of TaqMan Gene Expression Assays (Thermo Fisher, USA) for the following genes: Ccl2 (chemokine (C-C motif) ligand 2; Mm99999056_m1), Cd68 (CD68 antigen; Mm03047343_m1), Adgre1 (adhesion G protein-coupled receptor E1; Mm00802529_m1), Tnf (tumor necrosis factor; Mm00443258_m1), Il6 (interleukin 6; Mm99999064), Lep (leptin; Mm00434759_m1), Adipoq (adiponectin; Mm00456425_m1), Fads2 ([…]; Mm00517221_m1), Fads1 ([…]; Mm00507605_m1), Ucp1 (uncoupling protein 1; Mm00494069_m1), Elovl3 (elongation of very long chain fatty acids 3; Mm00468164_m1), Cidea (cell death-inducing DNA fragmentation factor, alpha subunit-like effector A; Mm00432554_m1), Otop1 (otopetrin 1; Mm00554705_m1), and Rplp0 (ribosomal protein, large, P0; forward; 5'-[…]-3', reverse; 5'-[…]-3', probe (VIC-5'→3'-TAMRA); 5'-[…]-3'). The Rplp0 mRNA level was used as a reference and relative transcript levels were calculated with the comparative Ct method (2^-ΔΔCT) (Applied Bio-systems).

[3] = biological target: T1, rat D9D (Rattus norvegicus, UniProt P07308); assay: In vitro enzyme assay for desaturase activity (hepatic microsomes), D9D; format: biochemical
T1 construct: using hepatic microsomes prepared from SD rats; from tissue; host or cells: liver microsomes of SD rats (CLEA, Japan)
T1 sequence (P07308 1-358): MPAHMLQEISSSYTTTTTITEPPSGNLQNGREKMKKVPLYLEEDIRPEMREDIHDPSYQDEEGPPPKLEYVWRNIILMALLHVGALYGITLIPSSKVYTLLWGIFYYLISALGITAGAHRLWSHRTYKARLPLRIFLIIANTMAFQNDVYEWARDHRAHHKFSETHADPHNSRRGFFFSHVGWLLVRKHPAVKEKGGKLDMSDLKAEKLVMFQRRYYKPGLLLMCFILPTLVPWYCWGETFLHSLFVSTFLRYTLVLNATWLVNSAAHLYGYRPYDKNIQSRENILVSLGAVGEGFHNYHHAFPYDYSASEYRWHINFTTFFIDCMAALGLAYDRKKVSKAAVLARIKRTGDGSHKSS
Method: Therefore, we also confirmed that compound-326 has no effect on D9D activity. Inhibitory activity of compound-326 on rat D5D, D6D, and D9D was evaluated using hepatic microsomes prepared from SD rats (CLEA, Japan) as described previously. Assays were performed in a total volume of 30 μL in 96-well plates in a buffer containing 100 mM NaHPO4, 150 mM KCl, 10 mM NaF, 1.5 mM glutathione, 3 mM MgCl2, 1 mM NADH, 3 mM ATP, 0.3 mM CoA-SH, and 0.1% fatty acid free bovine serum albumin (BSA, Sigma, St. Louis, MO); and 0.1 μCi/well of [^14C] DGLA or [^14C] linoleic acids (ARC, St. Louis, MO) were used as substrates for measuring D5D and D6D activities, respectively. After pre-incubation of the test compound with rat liver microsomes (final 1.0 mg/mL) for 5 min, the reaction was started by the addition of NADH, ATP, and the substrates, and the reaction mixture was incubated for another 120 min at room temperature. For D9D assay, [^14C] stearoyl-CoA (PerkinElmer, Waltham, MA) was used in the absence of NADH, ATP, and CoA-SH, and D9D enzyme reaction was performed for 30 min. The reactions were then terminated by the addition of 0.63 N NaOH. […] 2.3 (Fujifilm) and IC50 values were determined using the conversion ratio from the radioactive substrates (20:3n6, 18:2n6 and 18:0) to the products (20:4n6, 18:3n6 and 18:1n9).

O=C1Cc2c(nc(OCC(F)(F)C(F)(F)F)n(-c3ccc(OCC(F)(F)F)cc3)c2=O)N1 [Compound-326, 2-(2,2,3,3,3-Pentafluoropropoxy)-3-[4-(2,2,2-trifluoroethoxy)phenyl]-5,7-dihydro-3H-pyrrolo[2,3-d]pyrimidine-4,6-dione]
BW ([1]; compound-326 10 mg/kg p.o. once daily, 6 weeks): gradual decrease in BW | abnormal findings such as behavioral changes, diarrhea, or steatorrhea ([1]; compound-326 0.1-10 mg/kg p.o., 6 weeks): No abnormal findings | daily calorie intake ([1]; compound-326 at all doses (0.1, 1, 10 mg/kg), slight decrease at 10 mg/kg): not altered significantly | BW ([1]; compound-326 lower doses (0.1 and 1 mg/kg) p.o., 6 weeks): not effective | D5D mRNA expression in epididymal fat [2]: upregulated | D6D mRNA expression in epididymal fat [2]: upregulated | beige fat cell-selective genes, including Ucp1, Cidea, Elovl3, and Otop1, in subcutaneous fat [2]: no induction | epididymal Lep mRNA [2]: decreased | epididymal Adipoq mRNA ([2]; did not reach statistical difference (p = 0.08)): decreased | Lep mRNA in subcutaneous fat ([2]; did not reach statistical significance (p = 0.08)): decrease | Adgre1 expression in epididymal fat ([2]; not significant): decreased | Cd68 expression in epididymal fat ([2]; not significant): decreased | Ccl2 expression in epididymal fat ([2]; significant effect): decreased | pIC50 ([3]; Enzyme (hepatic microsomes), rat): < 5.00 | effect on D9D activity ([3]; species not given): no effect
